≈ marks a conversion by molar mass, not a printed value. Like-named read-outs stand apart in the source and are kept apart here.
Columns and labels:
[1] = tested on: Mouse P388 leukemia cells; experiment: Cytotoxicity Testing: 50% growth-inhibiting concentration, MTT method; format: cell-based; conditions: read-out: in vitro IC50 (50% growth-inhibiting concentration)
Protocol: Mouse P388 leukemia cells were used as cancer cells for this test. The cancer cells were incubated in RPMI-1640 medium containing 5 μM 2-mercaptoethanol and 10% fetal calf serum. More specifically, the cancer cells were seeded in a 96-well microplate in an amount of 1×10^4cell/50 μl/well, 25 μl/well of an aqueous solution of the test compound mentioned below (4 μg/ml) were added to each well, and the cells were incubated therein for 2 days at 37° C. After the incubation, the number of the living cells was counted using the MTT method and a dose-reaction curve was formed from the counted data. Based on the curve, the 50% growth-inhibiting concentration (IC50) of the test compound was calculated. As a comparative compound, Combretastatin A-4 was used.

[2] = tested on: Colon 26; experiment: Evaluation of Antitumor Activity: Colon 26 inoculated sc into CD2F1 mice; format: in vivo; conditions: tumor volume 21 days after the day of administration
Protocol: Colon 26 was inoculated sc into CD2F1 mice. After a week, the size of the tumor was measured and the volume of the tumor was calculated. Mice were selected on the basis of the volume of the tumor and administration of drug was begun. Twenty-one days after the day of administration, the size of the tumor was measured and the volume of the tumor was calculated. The inhibition ratio of growth of tumor (I.R.) was calculated as shown below. I.R.(%)={1-(Average Tumor Volume of Treated Mice)/(Average Tumor Volume of Control Mice)}×100

[3] = Solubility in phosphate buffer (pH 7.0), HPLC of supernatant; format: physicochemical
Protocol: An excess amount of each sample was dissolved in 0.1 ml of phosphate buffer (PH 7.0). The mixture was sonicated and centrifuged. The supernatant was subjected to HPLC and the solubility was measured.

[4] = 48 h, mouse P388 leukemia cells, 2 days at 37° C., MTT method
[5] = aqueous buffer, pH 7.0, read-out: Solubility in Phosphate Buffer (PH 7.0)
[6] = 40 mg/day, once a day on day 1, day 5 and day 7, perorally
[7] = 40 mg/day, once a day on day 1, day 5 and day 7, intravenously

COc1cc(/C(C#N)=C\c2ccc(Cl)c(N)c2)cc(OC)c1OC [(E)-3-(3-amino-4-chlorophenyl)-2-(3,4,5-trimethoxyphenyl)-prop-2-ene-nitrile]
IC50 [1, 4]: 1.8 ng/mL (≈ 0.00522 µM) | in vivo I.R. (inhibition ratio of growth of tumor) ([2]; 80 mg/day, once a day on day 1, day 5 and day 7, perorally): 23.7%

COc1ccc(/C=C(/C#N)c2cc(OC)c(OC)c(OC)c2)cc1N [(E)-3-(3-amino-4-methoxyphenyl)-2-(3,4,5-trimethoxyphenyl)-prop-2-ene-nitrile]
IC50 [1, 4]: 0.2 ng/mL (≈ 0.000588 µM) | in vivo I.R. (inhibition ratio of growth of tumor) ([2]; 10 mg/day, once a day from day 1 to day 10, intravenously): 83.4% | solubility [3, 5]: 1700 µg/mL (≈ 4990 µM)

COc1cc(/C(C#N)=C\c2ccc(C)c(N)c2)cc(OC)c1OC [(E)-3-(3-amino-4-methylphenyl)-2-(3,4,5-trimethoxyphenyl)-prop-2-ene-nitrile]
IC50 [1, 4]: 2 ng/mL (≈ 0.00617 µM) | in vivo I.R. (inhibition ratio of growth of tumor) [2, 6]: 41.0%

COc1ccc(/C=C\c2cc(OC)c(OC)c(OC)c2)cc1N [(Z)-1-(3-Amino-4-methoxyphenyl)-2-(3,4,5-trimethoxyphenyl)ethene]
IC50 [1, 4]: 0.2 ng/mL (≈ 0.000634 µM) | in vivo I.R. (inhibition ratio of growth of tumor) [2, 7]: 69.5% | solubility [3, 5]: 34000 µg/mL (≈ 108000 µM)

COc1cc(/C=C\c2ccc(Cl)c(N)c2)cc(OC)c1OC [(Z)-1-(3-amino-4-chlorophenyl)-2-(3,4,5-trimethoxyphenyl)ethene]
IC50 ([1]; Mus musculus, P388, 48 h): 20 ng/mL (≈ 0.0625 µM)

COc1cc(/C=C\c2ccc(C)c(N)c2)cc(OC)c1OC [(Z)-1-(3-amino-4-methylphenyl)-2-(3,4,5-trimethoxyphenyl)ethene]
IC50 ([1]; Mus musculus, P388, 48 h): 3.5 ng/mL (≈ 0.0117 µM) | in vivo I.R. (inhibition ratio of growth of tumor) [2, 7]: 61.6%

COc1ccc(/C=C\c2cc(OC)c(OC)c(OC)c2)cc1O [Combretastatin A-4, reference compound]
IC50 [1, 4]: 0.2 ng/mL (≈ 0.000632 µM) | in vivo I.R. (inhibition ratio of growth of tumor) [2, 6]: 4.6% | solubility ([3]; pH 7, aqueous buffer): < 100 µg/mL
